Data on one compound can be found in patent US9333178B2, “Essential oil microparticles and uses thereof for preventing enteric diseases” (Universidade Estadual de Campinas—UNICAMP, priority 2012, dated 2016).

In brackets after ≈: the same amount, converted by molar mass. Some results are limits rather than exact numbers.

Test [1] deals with U251 (glioma, CNS). Nature of the test: In vitro cytotoxicity, SRB assay. The format is cell-based, human. A general note: Sulforhodamine B stains cellular protein and so reports cell mass.
Description: Based on the results, growth rate graphics from the sample concentration for each of the tested strain were generated. Three effective concentrations called GI50 (growth inhibition, the concentration required to disrupt 50% cell growth), TGI (total growth inhibition, the concentration required for 0% of cell growth) and LC50 (lethal concentration, concentration required for 50% cell death) could be calculated by nonlinear regression, sigmoidal, using 8.0 Origin software.
Test [2] concerns panel of human tumor cells. Briefly: In vitro cytotoxicity, SRB assay, mean over tumor lines. It is filed as cell-based. As to conditions: arithmetic mean of the TGI values for tumor lines. Here is the method: (§1) The in vitro cytotoxicity of essential oils (present invention) were evaluated against two normal cell lines (VERO—African green monkey kidney epithelial cells and HaCat—immortal human keratinocytes) and against a panel of human tumor cells.
(§2) Based on the results, growth rate graphics from the sample concentration for each of the tested strain were generated.
The test results obtained are shown in FIG. 1 (present invention) and table 2. In this model, one way to infer the growth rate is by spectrophotometric reading of the absorbance of cellular proteins stained with sulforhodamine B (SRB), an anionic dye staining bright pink. This dye can bind to protein terminations of basic amino acids in living cells fixed with Trichloroacetic acid (TCA), thus being an independent assay of cell metabolism and allowing a sensitive measurement of protein linearly with the number of cells in culture. […]
Chemotherapy doxorubicin was used as positive control. […] This is because with successive passages necessary for the maintenance of cell culture, there is the possibility of changing the lineage in culture, and this mutation could be detected by the change in response against doxorubicin. […]

The test system of test [3] is 786-0 (kidney). Briefly: In vitro cytotoxicity, SRB assay. It is filed as cell-based, human. On the procedure:
as §1, §2
(§3) The test results obtained are shown in FIG. 1 (present invention) and table 2. In this model, one way to infer the growth rate is by spectrophotometric reading of the absorbance of cellular proteins stained with sulforhodamine B (SRB), an anionic dye staining bright pink. This dye can bind to protein terminations of basic amino acids in living cells fixed with Trichloroacetic acid (TCA), thus being an independent assay of cell metabolism and allowing a sensitive measurement of protein linearly with the number of cells in culture.
(§4) This test allows us to evaluate the antitumor activity through exposure of human tumor cells in exponential growth phase at different concentrations of the sample and whether that exposure led to an interruption in the growth rate without cell death ([…]) or caused the death cell (cytocidal activity). To measure the activity, an effective concentration called TGI (total growth inhibition, concentration required for 0% cell growth occurs) (Shoemaker, 2006) was calculated.
(§5) Chemotherapy doxorubicin was used as positive control. In addition to a standard of comparison, the main purpose of using this control was to verify that all employed cell lines kept the profile of response to chemotherapy. This is because with successive passages necessary for the maintenance of cell culture, there is the possibility of changing the lineage in culture, and this mutation could be detected by the change in response against doxorubicin. Furthermore, in order to minimize the occurrence of mutations, the cell lines are perpetuated only by up to 20 passages, after which they are replaced by new cells of the same strain that were maintained frozen.

The subject of test [4] is HaCat (keratinocyte, immortalized normal cell). Nature of the test: In vitro cytotoxicity, SRB assay. As to conditions: normal cell line. It is filed as cell-based, human. On the procedure: as §1, §2, §3, §4, §5
In test [5] the test system is NCI-H460 (lung, non-small cells). Briefly: In vitro cytotoxicity, SRB assay. The format is cell-based, human. Here is the method: as §1, §2, §3, §4, §5
Test [6] relates to MCF-7 (breast). Briefly: In vitro cytotoxicity, SRB assay. It is filed as cell-based, human. Here is the method: as §1, §2, §3, §4, §5
The subject of test [7] is NCI-ADR/RES (ovary, with multidrug resistant phenotype). Briefly: In vitro cytotoxicity, SRB assay. The format is cell-based, human. Here is the method:
as §1, §2, §3, §4, §5

Regarding `COc1cccc2c1C(=O)c1c(O)c3c(c(O)c1C2=O)C[C@@](O)(C(=O)CO)C[C@@H]3O[C@H]1C[C@H](N)[C@H](O)[C@H](C)O1` [Doxorubicin], the “TGI (Total Growth Inhibition)” value was 1.24 µg/mL (≈ 2.28 µM) in test [1]; greater than 25 µg/mL in test [3]; greater than 25 µg/mL in test [4]; greater than 25 µg/mL in test [5]; greater than 25 µg/mL in test [6]; greater than 25 µg/mL in test [7]. Further, in test [2], the “TGI Average” value was greater than 25 µg/mL.
